Results taken from patent US20260327204A1, “DEGRADERS OF CYCLIN-DEPENDENT KINASE 12/13, COMPOSITIONS, AND USES THEREOF” (ZHEJIANG UNIVERSITY, priority 2023, published 2026).

Columns and labels:
CDK12 = CDK12 (Homo sapiens, UniProt Q9NYV4); experiment: Western blot degradation of CDK12 (Example 2); type: cell-based; set-up: degradation of CDK12/13 protein in leukemia cells KASUMI-1, MV4-11, and Jurkat; endogenous in cells; settings: DC50 classes, cell line not given; for DC50: read-out: CDK12 degradation Activity
CDK12, sequence (Q9NYV4 whole entry): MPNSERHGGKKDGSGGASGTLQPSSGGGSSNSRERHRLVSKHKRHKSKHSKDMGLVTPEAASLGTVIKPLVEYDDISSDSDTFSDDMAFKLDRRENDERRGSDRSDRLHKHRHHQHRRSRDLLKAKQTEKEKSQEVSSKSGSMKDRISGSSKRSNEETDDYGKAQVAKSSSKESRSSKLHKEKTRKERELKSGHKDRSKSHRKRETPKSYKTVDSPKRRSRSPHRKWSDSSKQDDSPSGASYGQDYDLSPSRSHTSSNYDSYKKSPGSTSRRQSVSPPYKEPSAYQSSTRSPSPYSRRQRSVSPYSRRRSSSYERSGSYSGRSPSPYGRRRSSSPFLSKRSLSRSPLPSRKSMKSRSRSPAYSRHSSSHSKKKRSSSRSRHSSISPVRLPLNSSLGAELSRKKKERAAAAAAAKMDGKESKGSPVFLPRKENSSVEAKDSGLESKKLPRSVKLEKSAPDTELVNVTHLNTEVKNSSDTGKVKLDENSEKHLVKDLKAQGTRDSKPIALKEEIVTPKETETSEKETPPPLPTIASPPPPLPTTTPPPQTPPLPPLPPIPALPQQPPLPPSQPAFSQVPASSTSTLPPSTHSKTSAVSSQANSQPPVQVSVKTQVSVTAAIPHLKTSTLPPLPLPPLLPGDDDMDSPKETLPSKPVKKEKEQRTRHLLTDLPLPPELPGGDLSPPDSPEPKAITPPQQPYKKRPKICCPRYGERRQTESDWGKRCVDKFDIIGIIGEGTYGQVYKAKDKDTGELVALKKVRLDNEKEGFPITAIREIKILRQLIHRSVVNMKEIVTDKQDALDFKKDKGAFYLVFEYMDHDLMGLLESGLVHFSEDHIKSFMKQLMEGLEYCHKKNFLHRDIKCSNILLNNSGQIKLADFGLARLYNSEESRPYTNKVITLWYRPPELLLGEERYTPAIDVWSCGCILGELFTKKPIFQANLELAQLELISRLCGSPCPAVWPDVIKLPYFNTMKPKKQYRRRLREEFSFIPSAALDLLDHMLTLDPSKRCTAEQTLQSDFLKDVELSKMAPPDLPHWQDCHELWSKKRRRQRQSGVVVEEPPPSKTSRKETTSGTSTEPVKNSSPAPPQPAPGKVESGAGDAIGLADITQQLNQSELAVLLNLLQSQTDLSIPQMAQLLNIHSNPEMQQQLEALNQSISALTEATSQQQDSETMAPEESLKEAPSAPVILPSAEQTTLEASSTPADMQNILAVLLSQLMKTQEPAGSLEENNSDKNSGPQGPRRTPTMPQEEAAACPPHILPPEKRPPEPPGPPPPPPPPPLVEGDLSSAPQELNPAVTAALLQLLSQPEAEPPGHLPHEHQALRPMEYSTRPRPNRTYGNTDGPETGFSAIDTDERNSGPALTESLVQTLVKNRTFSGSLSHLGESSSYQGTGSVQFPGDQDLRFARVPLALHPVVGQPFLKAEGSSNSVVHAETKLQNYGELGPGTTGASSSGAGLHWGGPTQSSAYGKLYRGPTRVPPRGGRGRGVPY
CDK12, sequence (O75909 whole entry partner): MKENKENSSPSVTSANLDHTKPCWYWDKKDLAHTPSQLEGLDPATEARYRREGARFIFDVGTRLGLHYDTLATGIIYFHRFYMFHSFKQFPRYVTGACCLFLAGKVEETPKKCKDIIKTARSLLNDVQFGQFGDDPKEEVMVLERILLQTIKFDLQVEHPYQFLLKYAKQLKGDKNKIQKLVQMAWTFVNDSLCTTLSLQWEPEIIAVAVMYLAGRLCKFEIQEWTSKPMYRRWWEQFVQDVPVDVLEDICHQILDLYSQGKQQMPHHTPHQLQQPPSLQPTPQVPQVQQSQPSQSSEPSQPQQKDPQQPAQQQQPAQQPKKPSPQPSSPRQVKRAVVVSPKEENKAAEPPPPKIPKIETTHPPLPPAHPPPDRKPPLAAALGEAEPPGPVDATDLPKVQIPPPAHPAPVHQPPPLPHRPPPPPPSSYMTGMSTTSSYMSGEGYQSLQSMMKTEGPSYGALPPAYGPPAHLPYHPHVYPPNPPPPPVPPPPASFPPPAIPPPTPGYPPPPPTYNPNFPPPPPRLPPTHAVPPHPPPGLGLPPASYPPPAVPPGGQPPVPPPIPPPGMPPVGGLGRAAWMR
Protocol: (§1) Western blot was used to determine the degradation of CDK12/13 protein in leukemia cells KASUMI-1, MV4-11, and Jurkat. The two compounds with the best degradation effects were further validated for their ability to degrade CDK12/13 protein in breast cancer cells MDA-MB-231 using a concentration gradient.
(§2) • Cell lines: KASUMI-1, MV4-11, Jurkat, or MDA-MB-231 • Culture medium: DMEM/RIPM-1640+10% Hyclone serum • Compound dissolution method: Compounds were dissolved in DMSO to prepare a 50 mM stock solution, and then diluted to the corresponding concentrations.
(§3) (1) In vitro cell culture: The selected cells were cultured in a 37 °C constant temperature incubator with 5% CO2. Once the cell density reached 70-90%, they were passaged for subsequent experiments.
(§4) (2) Cell seeding: Cells were digested, and the cell suspension was transferred to a 1.5 mL Eppendorf tube. After centrifugation at 1,000 rpm for 5 min, the cells were resuspended in 2 mL of culture medium and counted. The cell suspension was seeded in a 24-well plate at a density of 200,000 cells per well and allowed to adhere for 8-12 h.
(§5) (3) Compound treatment: The 50 mM compound stock solution was diluted with cell culture medium to a final concentration of 0.01 μM-3 μM. Cells were incubated in a 37 °C incubator with 5% CO2 for 3 h-48 h. The DMSO group served as the negative control.
(§6) At the end of the treatment time, the cells were collected and washed once with PBS. An appropriate volume of 4% SDS was added to lyse the cells, and the mixture was sonicated until no longer viscous. After centrifugation at 12,000 rpm at room temperature for 30 min, the supernatant was transferred to a new EP tube for protein quantification.
(§7) The exposure results were quantitatively analyzed using Image J software. First, the grayscale values of the bands were calculated using Image J. Then, the grayscale value of the target protein was divided by the grayscale value of the internal reference protein for normalization. The calculation formula is: […]
(§8) Where A is the grayscale value and D is the degradation rate.
(§9) In the figures, CDK12 and CDK13 are the target proteins under study, and β-Actin and GAPDH are the internal reference proteins. Internal reference proteins are used to indicate the total protein amount in each experimental group for quantitative analysis.

CDK13 = CDK13 (Homo sapiens, UniProt Q14004); experiment: Western blot degradation of CDK13 (Example 2); type: cell-based; set-up: degradation of CDK12/13 protein in leukemia cells KASUMI-1, MV4-11, and Jurkat; endogenous in cells; settings: DC50 classes, cell line not given; for DC50: read-out: CDK13 degradation Activity
CDK13, sequence (Q14004 whole entry): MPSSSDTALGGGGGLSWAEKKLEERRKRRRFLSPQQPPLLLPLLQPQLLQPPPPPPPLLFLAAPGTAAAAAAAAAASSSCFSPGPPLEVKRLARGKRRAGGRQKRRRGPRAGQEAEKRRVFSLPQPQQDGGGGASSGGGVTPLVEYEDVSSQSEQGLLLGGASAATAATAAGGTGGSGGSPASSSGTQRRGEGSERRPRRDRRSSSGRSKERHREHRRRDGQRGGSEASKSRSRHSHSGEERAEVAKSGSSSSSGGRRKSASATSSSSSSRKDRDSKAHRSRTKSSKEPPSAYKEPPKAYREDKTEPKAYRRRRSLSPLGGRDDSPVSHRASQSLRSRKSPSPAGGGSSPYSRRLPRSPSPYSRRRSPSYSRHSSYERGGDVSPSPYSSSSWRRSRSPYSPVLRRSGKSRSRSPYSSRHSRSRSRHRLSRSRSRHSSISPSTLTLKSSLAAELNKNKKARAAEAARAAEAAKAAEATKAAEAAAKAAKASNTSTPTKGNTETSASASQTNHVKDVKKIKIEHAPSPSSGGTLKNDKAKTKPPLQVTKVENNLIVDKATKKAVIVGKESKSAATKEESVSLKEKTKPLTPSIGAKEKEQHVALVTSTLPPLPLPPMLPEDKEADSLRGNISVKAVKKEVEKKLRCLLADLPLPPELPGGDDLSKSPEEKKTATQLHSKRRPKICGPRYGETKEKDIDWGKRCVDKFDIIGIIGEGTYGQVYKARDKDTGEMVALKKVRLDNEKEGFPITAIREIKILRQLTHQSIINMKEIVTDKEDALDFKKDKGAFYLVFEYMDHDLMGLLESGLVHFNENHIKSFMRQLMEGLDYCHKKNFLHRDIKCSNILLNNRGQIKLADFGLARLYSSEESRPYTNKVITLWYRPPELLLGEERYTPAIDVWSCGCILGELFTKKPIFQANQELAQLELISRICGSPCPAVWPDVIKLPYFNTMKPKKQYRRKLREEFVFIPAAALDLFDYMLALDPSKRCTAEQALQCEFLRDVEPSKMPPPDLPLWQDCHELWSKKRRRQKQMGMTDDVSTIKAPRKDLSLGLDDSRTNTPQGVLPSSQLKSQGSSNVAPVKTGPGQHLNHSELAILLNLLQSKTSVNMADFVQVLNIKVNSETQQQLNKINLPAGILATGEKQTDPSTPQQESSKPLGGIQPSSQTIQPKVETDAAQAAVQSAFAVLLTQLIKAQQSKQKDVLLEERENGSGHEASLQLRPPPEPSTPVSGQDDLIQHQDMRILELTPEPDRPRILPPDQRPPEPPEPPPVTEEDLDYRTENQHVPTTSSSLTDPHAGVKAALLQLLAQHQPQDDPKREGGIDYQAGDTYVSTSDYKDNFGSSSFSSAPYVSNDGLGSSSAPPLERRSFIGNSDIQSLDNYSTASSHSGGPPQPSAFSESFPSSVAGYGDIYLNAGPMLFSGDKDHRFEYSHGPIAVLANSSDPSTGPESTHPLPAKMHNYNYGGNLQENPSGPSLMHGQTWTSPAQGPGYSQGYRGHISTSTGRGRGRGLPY
CDK13, sequence (O75909 whole entry partner): as the sequence (O75909 whole entry partner) above
Protocol: as §1, §2, §3, §4, §5, §6, §7, §8, §9

Cc1ncsc1-c1ccc([C@H](C)NC(=O)[C@@H]2C[C@@H](O)CN2C(=O)[C@@H](NC(=O)C2CCN(c3ccc(-c4ccc(N(C(=O)NCc5ccccc5)[C@H]5CC[C@H](Nc6ccc(C#N)cn6)CC5)cc4)cn3)CC2)C(C)(C)C)cc1 [Formula 17] was tested, and the DC50 (CDK12) was 1 to 3 µM and the DC50 (CDK13) was 0.5 to 1 µM.

In the case of Cc1ncsc1-c1ccc([C@H](C)NC(=O)[C@@H]2C[C@@H](O)CN2C(=O)[C@@H](NC(=O)CC#CC2CCN(c3ccc(-c4ccc(N(C(=O)NCc5ccccc5)[C@H]5CC[C@H](Nc6ccc(C#N)cn6)CC5)cc4)cn3)CC2)C(C)(C)C)cc1 [Formula 19], the “CDK12 degradation Activity” value (CDK12) is reported as “−” and the “CDK13 degradation Activity” value (CDK13) is reported as “−”.

Molecule Cc1ncsc1-c1ccc([C@H](C)NC(=O)[C@@H]2C[C@@H](O)CN2C(=O)[C@@H](NC(=O)CC#CC2CCN(c3ccc(N(C(=O)NCc4ccccc4)[C@H]4CC[C@H](Nc5ccc(C#N)cn5)CC4)cc3)CC2)C(C)(C)C)cc1 [Formula 20] has a DC50 (CDK12) of 3 to 10 µM and a DC50 (CDK13) of 3 to 10 µM.

For Cc1ncsc1-c1ccc([C@H](C)NC(=O)[C@@H]2C[C@@H](O)CN2C(=O)[C@@H](NC(=O)C2CCN(C(=O)C3CCN(c4ccc(-c5ccc(N(C(=O)NCc6ccccc6)[C@H]6CC[C@H](Nc7ccc(C#N)cn7)CC6)cc5)cn4)CC3)CC2)C(C)(C)C)cc1 [Formula 21], the DC50 (CDK12) was 1 to 3 µM and the DC50 (CDK13) was 1 to 3 µM.

For Cc1ncsc1-c1ccc([C@H](C)NC(=O)[C@@H]2C[C@@H](O)CN2C(=O)[C@@H](NC(=O)C2CCN(C(=O)C3CCN(c4ccc(N(C(=O)NCc5ccccc5)[C@H]5CC[C@H](Nc6ccc(C#N)cn6)CC5)cc4)CC3)CC2)C(C)(C)C)cc1 [Formula 22], the “CDK12 degradation Activity” value (CDK12) was “−” and the “CDK13 degradation Activity” value (CDK13) was “−”.

In the case of Cc1ncsc1-c1ccc([C@H](C)NC(=O)[C@@H]2C[C@@H](O)CN2C(=O)[C@@H](NC(=O)CC#CC2CN(c3ccc(-c4ccc(N(C(=O)NCc5ccccc5)[C@H]5CC[C@H](Nc6ccc(C#N)cn6)CC5)cc4)cn3)C2)C(C)(C)C)cc1 [Formula 23], the DC50 (CDK12) is reported as 3 to 10 µM and the “CDK13 degradation Activity” value (CDK13) is reported as “−”.

With Cc1ncsc1-c1ccc([C@H](C)NC(=O)[C@@H]2C[C@@H](O)CN2C(=O)[C@@H](NC(=O)CC#CC2CN(c3ccc(N(C(=O)NCc4ccccc4)[C@H]4CC[C@H](Nc5ccc(C#N)cn5)CC4)cc3)C2)C(C)(C)C)cc1 [Formula 24] the “CDK12 degradation Activity” value (CDK12) was “−” and the “CDK13 degradation Activity” value (CDK13) was “−”.

Molecule Cc1ncsc1-c1ccc([C@H](C)NC(=O)[C@@H]2C[C@@H](O)CN2C(=O)[C@@H](NC(=O)CN2CCC(C#Cc3ccc(N(C(=O)NCc4ccccc4)[C@H]4CC[C@H](Nc5ccc(C#N)cn5)CC4)cc3)CC2)C(C)(C)C)cc1 [Formula 25] has a DC50 (CDK12) of 3 to 10 µM and a DC50 (CDK13) of 3 to 10 µM.

For Cc1ncsc1-c1ccc([C@H](C)NC(=O)[C@@H]2C[C@@H](O)CN2C(=O)[C@@H](NC(=O)CN2CC(C#Cc3ccc(N(C(=O)NCc4ccccc4)[C@H]4CC[C@H](Nc5ccc(C#N)cn5)CC4)cc3)C2)C(C)(C)C)cc1 [Formula 26], the “CDK12 degradation Activity” value (CDK12) was “−” and the “CDK13 degradation Activity” value (CDK13) was “−”.

For Cc1ncsc1-c1ccc([C@H](C)NC(=O)[C@@H]2C[C@@H](O)CN2C(=O)[C@@H](NC(=O)C2CC3(CC(Nc4ccc(N(C(=O)NCc5ccccc5)[C@H]5CC[C@H](Nc6ccc(C#N)cn6)CC5)cc4)C3)C2)C(C)(C)C)cc1 (stereo partly drawn) [Formula 27], the DC50 (CDK12) was 3 to 10 µM and the “CDK13 degradation Activity” value (CDK13) was “−”.

Cc1ncsc1-c1ccc([C@H](C)NC(=O)[C@@H]2C[C@@H](O)CN2C(=O)[C@@H](NC(=O)C2CC3(CC(Nc4ccc(-c5ccc(N(C(=O)NCc6ccccc6)[C@H]6CC[C@H](Nc7ccc(C#N)cn7)CC6)cc5)cn4)C3)C2)C(C)(C)C)cc1 (stereo partly drawn) [Formula 28] showed a DC50 (CDK12) of 3 to 10 µM and a DC50 (CDK13) of 3 to 10 µM.

With Cc1ncsc1-c1ccc([C@H](C)NC(=O)[C@@H]2C[C@@H](O)CN2C(=O)[C@@H](NC(=O)CC2CN(c3ccc(-c4ccc(N(C(=O)NCc5ccccc5)[C@H]5CC[C@H](Nc6ccc(C#N)cn6)CC5)cc4)cn3)C2)C(C)(C)C)cc1 [Formula 29] the DC50 (CDK12) was 3 to 10 µM and the “CDK13 degradation Activity” value (CDK13) was “−”.
